Data published in paper PMC8664216 (PLoS Neglected Tropical Diseases, 2021).

Key:
Huh7 cells [1] = conditions: cited from earlier work
DENV-2 = conditions: DENV-2, in vitro; cited from earlier work
CHIKV-LR [2] = assay: Western blot of CHIKV nsP2, E1 and capsid proteins; type: cell-based, Chikungunya virus; conditions: 9 hpi
p62 = assay: Western blot of p62 in mock- or CHIKV-infected Huh7 cells; type: cell-based, human; conditions: 10 μM tomatidine, 9 hpi
CHIKV-LR [3] = assay: Infectious particle production (plaque assay) in siRNA knockdown Huh7 cells; type: cell-based, Chikungunya virus; conditions: CHIKV MOI 10, 10 μM tomatidine, 9 hpi
CHIKV-LR [4] = conditions: in vitro; cited from earlier work
CD98 = assay: Western blot of CD98 in mock- or CHIKV-infected Huh7 cells; type: cell-based, human; conditions: 10 μM tomatidine, 9 hpi
[5] = tested on: CHIKV-LR trans-replicase system; assay: CHIKV trans-replicase system, tomato marker by flow cytometry; type: cell-based, Chikungunya virus; conditions: for Percentage of fluorescent tomato marker expressing cells / Reduction of marker expressing cells compared to EtOH control: Huh7 cells; for Percentage of fluorescent tomato marker expressing cells: read at 24 h, EtOH control 8.18±0.45%
TMX2 = assay: Western blot of TMX2 in mock- or CHIKV-infected Huh7 cells; type: cell-based, human; conditions: 10 μM tomatidine, 9 hpi
CHIKV-LR [6] = assay: Time-trace and time-chase: intracellular CHIKV RNA copies by Q-RT-PCR; type: cell-based, Chikungunya virus; conditions: Huh7 cells; for Intracellular viral RNA load: MOI 10, 10 μM tomatidine at time of infection; for Reduction of intracellular RNA load compared to EtOH control: MOI 10, 10 μM tomatidine
[7] = tested on: CHIKV in vitro transcribed RNA (CHIK-LR); assay: Virus cell entry-bypass assay: electroporation of in vitro transcribed CHIKV RNA, plaque assay; type: cell-based, Chikungunya virus; conditions: Huh7 cells electroporated with CHIKV RNA, 10 μM tomatidine, 16 h post-transfection
Huh7 cells [8] = assay: ATPLite cytotoxicity assay; conditions: 7 μM ivermectin, 24 h
[9] = Huh7, MOI 10, 10 μM tomatidine added at 4 hpi
[10] = Huh7, MOI 10, 10 μM tomatidine added at 6 hpi
[11] = Huh7, MOI 10, 10 μM tomatidine added simultaneous to infection
[12] = CHIKV-infected (MOI 10) Huh7 cells

C[C@H]1CC[C@]2(NC1)O[C@H]1C[C@H]3[C@@H]4CC[C@H]5C[C@@H](O)CC[C@]5(C)[C@H]4CC[C@]3(C)[C@H]1[C@@H]2C [tomatidine, Tomatidine]
Highest non-toxic yet antiviral dose (Huh7 cells [1]): 10 µM | EC50 (DENV-2): 0.82 µM | C (capsid) expression compared to EtOH control (CHIKV-LR [2]; [9]): 50% | E1 expression compared to EtOH control (CHIKV-LR [2]; [9]): 30% | nsP2 expression compared to EtOH control (CHIKV-LR [2]; [9]): 50% | C (capsid) expression compared to EtOH control (CHIKV-LR [2]; [10]): 60% | E1 expression compared to EtOH control (CHIKV-LR [2]; [10]): 40% | nsP2 expression compared to EtOH control (CHIKV-LR [2]; [10]): 60% | C (capsid) expression compared to EtOH control (CHIKV-LR [2]; [11]): 46% | E1 expression compared to EtOH control (CHIKV-LR [2]; [11]): 18% | nsP2 expression compared to EtOH control (CHIKV-LR [2]; [11]): 50% | Increase of p62 expression compared to solvent control (p62; [12]): 1.8 fold | Increase of p62 expression compared to solvent control (p62; mock-infected Huh7 cells): 1.7 fold | Inhibition of infectious particle production compared to EtOH control (CHIKV-LR [3]; Huh7 cells with CD98 siRNA knock-down): 91.68% | Inhibition of infectious particle production compared to EtOH control (CHIKV-LR [3]; Huh7 cells with p62 knock-down (siRNA #1)): 86.37% | Inhibition of infectious particle production compared to EtOH control (CHIKV-LR [3]; Huh7 cells with p62 knock-down (siRNA #4)): 90.82% | EC50 (CHIKV-LR [4]): 1.3 µM | Increase of CD98 expression compared to solvent control (CD98; [12]): 1.4 fold | Increase of CD98 expression compared to solvent control (CD98; mock-infected Huh7 cells): 1.6 fold | Percentage of fluorescent tomato marker expressing cells ([5]; 10 μM tomatidine added 1 h post-transfection): 4.4±0.69% | Reduction of marker expressing cells compared to EtOH control ([5]; 10 μM tomatidine, 24 h post-transfection): 46% | Change in protein expression of TMX2 (TMX2): did not induce any significant change | Intracellular viral RNA load (CHIKV-LR [6]; 1 and 2 hpi (all experimental conditions)): ~ 7 Log10 copies | Intracellular viral RNA load (CHIKV-LR [6]; 4 hpi, EtOH 8.0±0.2): 7.8±0.1 Log10 copies | Intracellular viral RNA load (CHIKV-LR [6]; 6 hpi, EtOH 9.7±0.1): 9.2±0.1 Log10 copies | Intracellular viral RNA load (CHIKV-LR [6]; 8 hpi, EtOH 10.3±0.0): 9.9±0.1 Log10 copies | Reduction of intracellular RNA load compared to EtOH control (CHIKV-LR [6]; 6 hpi): 74% | Reduction of intracellular RNA load compared to EtOH control (CHIKV-LR [6]; 8 hpi): 62% | Intracellular viral RNA copy number vs absence of tomatidine (time-chase) (CHIKV-LR [6]; MOI 10, tomatidine added at 6 hpi, RNA at 8 and 10 hpi, without tomatidine 10.3±0.0 and 10.6±0.0 Log10): Comparable results | Reduction of virus titer [7]: 2.6 log | Infectious virus titer ([7]; EtOH control 5.0±0.1): 2.4±0.3 Log10 PFU/mL

ivermectin
Cytotoxicity of the selected concentration (Huh7 cells [8]): non-toxic | Percentage of fluorescent tomato marker expressing cells ([5]; 7 μM ivermectin added 1 h post-transfection): 2.19±0.5% | Reduction of marker expressing cells compared to EtOH control ([5]; 7 μM ivermectin, 24 h post-transfection): 73% | MFI of tomato marker relative to EtOH control ([5]; marker-positive Huh7 cells, 7 μM ivermectin, 24 h post-transfection): 0.4±0.06
